Test results published in article PMC7330904 (ACS Omega, 2020).

How the values were obtained:
[1] = tested on: Hep-G2 cells; test: APOPercentage apoptosis assay, Hep-G2; type: cell-based, human; conditions: Hep-G2, 24 h, IC50 of complexes, flow cytometry, vs untreated cells
[2] = tested on: calf thymus DNA (CT-DNA); conditions: cited from earlier work

SMILES | induction of apoptosis (APOPercentage dye uptake) [1] | binding constant Kb of known DNA intercalator [2]
N.N.[Cl][Pt][Cl] [Cisplatin] | but not Hep-G2 cells | –
COc1cccc2c1C(=O)c1c(O)c3c(c(O)c1C2=O)C[C@@](O)(C(=O)CO)C[C@@H]3O[C@H]1C[C@H](N)[C@@H](O)[C@H](C)O1 [Epirubicin] | – | 3.4 × 10^4 M^–1
Nc1ccc2cc3ccc(N)cc3nc2c1 [Proflavine] | – | 2.32 × 10^4 M^–1
CC[n+]1c(-c2ccccc2)c2cc(N)ccc2c2ccc(N)cc21 [ethidium bromide] | – | 1.4 × 10^6 M^–1
